In patent publication US20120065187A1 (ALCON RESEARCH, LTD, priority 2008, published 2012) one finds EC50 data, which are given here for 16 compounds.

Structures can show the parent of a compound that is named as a salt.

The target in one assay is T1, human H1 (Homo sapiens, UniProt P35367).
T1 construct: host or cells: CHO-K1
Put plainly: In vitro histamine receptor cell-based assay (aequorin bioluminescence), H1 antagonism. The note with it: CHO-K1 cells expressing human H1 and aequorin; histamine at EC80; read-out: H1 Antagonist EC50. In a few lines:
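Antagonism read as drop in aequorin luminescence after histamine challenge at a predetermined EC80, following 15 min compound pretreatment at room temperature. Cells: CHO-K1 carrying human H1, or H4 with Gα16; signal as AUC or amplitude, normalised to 10 μM diphenhydramine (H1) or JNJ7777120 (H4).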

For the next assay, the target named is T2, human H4 (Homo sapiens, UniProt Q9H3N8).
T2 construct: host or cells: CHO-K1
Put plainly: In vitro histamine receptor cell-based assay (aequorin bioluminescence), H4 antagonism. To be noted: CHO-K1 cells expressing human H4, aequorin and Gα16; histamine at EC80; read-out: H4 Antagonist EC50. The gist of the method:
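Antagonism read as loss of aequorin luminescence after histamine (EC80 final) addition, following 15 min room-temperature compound pretreatment of coelenterazine-h-loaded (5 μM) CHO-K1 cells co-expressing human H4 and Gα16. Efficacy given relative to 10 μM JNJ7777120; agonism excluded in separate no-histamine runs.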

T2 sequence (Q9H3N8 whole entry): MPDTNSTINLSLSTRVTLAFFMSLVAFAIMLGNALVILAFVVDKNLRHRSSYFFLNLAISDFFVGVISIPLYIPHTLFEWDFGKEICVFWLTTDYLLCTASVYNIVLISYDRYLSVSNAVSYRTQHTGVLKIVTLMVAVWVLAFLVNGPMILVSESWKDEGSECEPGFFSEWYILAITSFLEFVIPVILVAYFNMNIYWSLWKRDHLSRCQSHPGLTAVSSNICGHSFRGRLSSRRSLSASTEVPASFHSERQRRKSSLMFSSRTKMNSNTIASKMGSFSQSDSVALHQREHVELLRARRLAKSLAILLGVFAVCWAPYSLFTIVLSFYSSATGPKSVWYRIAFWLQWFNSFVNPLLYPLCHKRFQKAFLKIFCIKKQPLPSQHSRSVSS
T1 sequence (P35367 whole entry): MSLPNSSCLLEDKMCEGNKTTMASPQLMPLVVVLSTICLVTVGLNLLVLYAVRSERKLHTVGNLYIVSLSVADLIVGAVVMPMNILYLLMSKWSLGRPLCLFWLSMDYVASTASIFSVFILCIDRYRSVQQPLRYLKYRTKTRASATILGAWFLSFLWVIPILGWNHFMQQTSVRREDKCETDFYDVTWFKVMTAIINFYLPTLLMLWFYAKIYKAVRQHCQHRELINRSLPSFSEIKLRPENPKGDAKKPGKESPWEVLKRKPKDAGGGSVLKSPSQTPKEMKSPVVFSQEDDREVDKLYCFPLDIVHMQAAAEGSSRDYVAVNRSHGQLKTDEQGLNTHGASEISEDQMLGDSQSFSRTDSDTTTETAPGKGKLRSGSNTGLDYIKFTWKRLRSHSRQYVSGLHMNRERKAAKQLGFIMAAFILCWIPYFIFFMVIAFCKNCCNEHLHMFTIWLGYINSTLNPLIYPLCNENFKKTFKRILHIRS

Turning to `Cc1nc2c(N3CCNCC3)nc3ccc(Cl)cc3c2o1` [Example 144, 8-chloro-2-methyl-4-(piperazin-1-yl)oxazolo[4,5-c]quinoline], the EC50 is over 10 µM at human H1 and under 10 µM on human H4.
In the case of `Cc1nc2c(N3CCNCC3)nc3cc(F)c(F)cc3c2o1` [Example 146, 7,8-difluoro-2-methyl-4-(piperazin-1-yl)oxazolo[4,5-c]quinoline], the concentration for a half-maximal effect (EC50) on human H1 and on human H4 was under 10 µM in each case.
Consider `CN1CCN(c2nc3ccc(Cl)cc3c3ccoc23)CC1` [Example 147, 8-Chloro-4-(4-methylpiperazin-1-yl)furo[2,3-c]quinoline], for which the EC50 is over 10 µM on human H1 and under 10 µM at human H4.
For the compound `Clc1ccc2nc(N3CCNCC3)c3occc3c2c1` [Example 148, 8-Chloro-4-(piperazin-1-yl)furo[2,3-c]quinoline], the figures for the EC50 on human H1 and on human H4 were over 10 µM and under 10 µM, respectively.
As for `CN1CCN(c2nc3ccc(Cl)cc3c3ccsc23)CC1` [Example 149, 8-Chloro-4-(4-methylpiperazin-1-yl)thieno[2,3-c]quinoline], the EC50 on human H1 and at human H4 was under 10 µM in each case.
Take `Cn1cc2c(n1)c(N1CCNCC1)nc1ccc(Cl)cc12` [Example 151, 8-Chloro-2-methyl-4-(piperazin-1-yl)-2H-pyrazolo[3,4-c]quinoline]: the half-maximal effective concentration (EC50) on human H1 and at human H4 was under 10 µM in each case.
Consider `Cn1cc2c(n1)c(N1CC[N+](C)(C)CC1)nc1ccc(Cl)cc12` [Example 154, 4-(8-Chloro-2-methyl-2H-pyrazolo[3,4-c]quinolin-4-yl)-1,1-dimethylpiperazin-1-ium], for which the 50% effective concentration (EC50) on human H1 and on human H4 was over 10 µM throughout.
With `CN1CCN(c2nc3ccc(C(F)(F)F)cc3c3cn(C)nc23)CC1` [Example 155, 2-Methyl-4-(4-methylpiperazinyl)-8-(trifluoromethyl)pyrazolo[3,4-c]quinoline], the concentration giving a half-maximal response (EC50) at human H1 is over 10 µM; at human H4 it was under 10 µM.
For `Cn1cc2c(n1)c(N1CCNCC1)nc1ccc(C(F)(F)F)cc12` [Example 156, 2-Methyl-4-piperazinyl-8-(trifluoromethyl)pyrazolo[3,4-c]quinoline HCl salt], in that order: under 10 µM and under 10 µM.
On the same counts, the results for `CN1CCN(c2nc3ccc(C(F)(F)F)cc3c3c[nH]nc23)CC1` [Example 157, 4-(4-Methylpiperazinyl)-8-(trifluoromethyl)pyrazolo[3,4-c]quinoline] are over 10 µM and under 10 µM.
On the same counts, the results for `Cn1cnc2c(N3CCNCC3)nc3ccc(Cl)cc3c21` [Example 158, 8-Chloro-1-methyl-4-(piperazin-1-yl)-1H-imidazo[4,5-c]quinoline] are over 10 µM and over 10 µM.
`CN1CCN(c2nc3ccc(Cl)cc3c3c2ncn3C)CC1` [Example 159, 8-Chloro-1-methyl-4-(4-methylpiperazin-1-yl)-1H-imidazo[4,5-c]quinoline]: the EC50 at human H1 is over 10 µM; at human H4, under 10 µM.
Regarding `Cc1nc2c(N3CCN(C)CC3)nc3ccc(Cl)cc3c2[nH]1` [Example 162, 8-Chloro-2-methyl-4-(4-methylpiperazinyl)imidazo[4,5-c]quinoline], the EC50 on human H1 and at human H4 was over 10 µM in each case.
For the compound `Cc1nc2c(N3CCNCC3)nc3ccc(Cl)cc3c2[nH]1` [Example 163, 8-Chloro-2-methyl-4-piperazinylimidazo[4,5-c]quinoline], the half-maximal effective concentration (EC50) at human H1 and at human H4 was over 10 µM each time.
As to `Cc1nc2c(N3CCNCC3)nc3ccc(Cl)cc3n2n1` [Example 164, 8-chloro-2-methyl-4-(piperazin-1-yl)-[1,2,4]triazolo[1,5-a]quinoxaline], the results for the EC50 at human H1 and at human H4 were over 10 µM and under 10 µM, respectively.
As for `Clc1ccc2nc(N3CCNCC3)c3nocc3c2c1` [Example 167, 8-Chloro-4-(piperazin-1-yl)isoxazolo[3,4-c]quinoline], the EC50 on human H1 and at human H4 was under 10 µM in each case.

In general, EC50 refers to the concentration needed to bring the measured effect to its halfway point.
